The values that follow are results of earlier work, collected in patent publication US20050244465A1, “Drug delivery systems and methods for treatment of an eye” (Allergan, Inc., priority 2004, published 2005).

The conditions of this series: efficacy in vivo; 25 mg hydrocortisone equivalent to 1 mg dexamethasone.

On to `C[C@]12CCC(=O)C=C1CC[C@@H]1[C@@H]2[C@@H](O)C[C@@]2(C)[C@H]1CC[C@]2(O)C(=O)CO` [hydrocortisone], for which the “potency relative to dexamethasone” value is on record as “approximately twentyfivefold less potent than dexamethasone”.
